From US20250388572A1, “USE OF HPK1 INHIBITOR IN PREVENTION AND/OR TREATMENT OF HUMAN PATHOGEN INFECTION” (priority 2022, published 2025)

Legend:
[1] = beagle, dog, microsomes, 1 h, 10 µM
Description: The procedure for identifying microsomal metabolites is as follows:
The compounds (test compounds and their numbers are shown below, among which compounds A1 and B1 are prepared by referring to the relevant method disclosed in CN110396087A) were weighed and dissolved into dimethyl sulfoxide to prepare a 20 mM solution. The compound stock solution was diluted with 50% acetonitrile in water (v/v) to a concentration of 1.0 mM as a working solution. Liver microsomes (20 mg/mL) were diluted to 1.27 mg/mL with 50 mM dipotassium hydrogen phosphate buffer as a liver microsome working solution. Reduced coenzyme was weighed and dissolved in 3307 μL of phosphate buffer (50 mM) to 5.0 mM as a reduced coenzyme working solution. For T=60 minutes samples, 4 μL of test working solution (1.0 mM) was added, followed by 316 μL of liver microsome working solution (1.27 mg/mL), and finally, 80 μL of reduced coenzyme working solution was added to start the reaction. For T=0 minutes samples, 316 μL of liver microsome working solution (1.27 mg/mL) was added and then 80 μL of reduced coenzyme working solution was added to start the reaction, without test solution incubation. After incubation at 37° C. for 60 minutes, 1200 μL of stop solution was added to stop the enzyme reaction. For T=0 minute samples, 4 μL of test working solution (1.0 mM) was added. The sample plate was placed on a vortexer and vortexed at 600 rpm for 5 minutes. Then, the sample plate was centrifuged at 4000 rpm for 10 minutes. The supernatant was removed, mixed, and dried at room temperature with nitrogen. The residue dried with nitrogen was redissolved in 300 μL of 10% acetonitrile (0.1% FA) solvent and then centrifuged at 4000 rpm for 15 minutes. The supernatant was transferred to a detection plate for mass spectrometry. Mass spectrometry was performed using LC/Q-Exactive plus.
7-Ethoxycoumarin (10 μM) was selected as a positive control compound and operated in parallel with the compounds.

[2] = in vivo; settings: male, cynomolgus monkey
Description: Three male Cynomolgus macaques were administrated a single dose via intravenous injection (iv, 1 mg/kg, n=3), followed by oral administration (po, 10 mg/kg, n=3) after washing out for one week. Intravenous injection was performed by formulating the compounds into 1.0 mg/mL solutions using water or 10% DMSO/30% PEG400/water and administering it at a volume of 1 mL/kg. Oral administration was performed by formulating the compounds into 2.0 mg/mL solutions or suspensions using water or 0.5% methylcellulose/1.7 meq 1N hydrochloric acid and administering it at a volume of 5 mL/kg.
The pharmacokinetic parameters of the compounds were calculated using the non-compartmental model.

[3] = test system: hPBMCs; experiment: Pharmacodynamic evaluation for hPBMCs (IL-2 by ELISA); assay type: cell-based, human; settings: 1 uM, 24 hours, CD3/CD28-activated hPBMCs
Description: The hPBMCs used in this experiment were purchased from Shanghai AoNeng Biotechnology Co., Ltd. CD3 antibody was pre-coated onto a 96-well plate for future use. Cells were seeded into the 96-well plate at 2×10^6/ml, with 200 μL per well. CD28 antibody was added for activation, and Compound A2 was added at a final concentration of 1 μM. The supernatant was collected after 24 hours of treatment. IL-2 levels were determined by ELISA, and the effects of A2 and CD3/CD28 on the activation of hPBMCs were compared.

[4] = test system: HSV virus; experiment: Pharmacodynamic evaluation for viral keratitis (HSV) in mice; assay type: in vivo, C57 mice; settings: for corneal perforation: right eye, 2 weeks, control: 2 eyes perforated from day 5; for clinical score at the highest peak of the disease (day 5): control group above 6
Description: Fifteen C57 mice (body weight: 22 g to 25 g), aged 8 weeks, were subjected to viral keratitis modeling in their right eyes. During the modeling process, a sterile 25G needle was used to make […]parallel scratches on the cornea of the right eye of all the animals. The scratch depth should be in the superficial zone and cannot penetrate the stroma layer. The scratches between each eyeball should be moderately uniform in depth and evenly distributed in density. Then, 4 μl of well-mixed HSV virus solution was dripped using a fiber syringe (titer: 2.0*10^6 PFU/ml) to complete the modeling. The day of modeling was set as DO. One day after modeling, the animals' right eyes were scored for viral keratitis, and 9 mice with uniform modeling were selected for the experiment. These 9 mice were randomly divided into 3 groups: control group, 1% A2 group and 0.2% A2 group, with 3 mice per group. According to the grouping, each animal's right eye surface was treated with the corresponding drugs, vehicle or 3024 eye drops with different concentrations, once every other day. On the day of administration, each eye was given 3 drops of 10 μl each time for 2 consecutive weeks. The degree of keratitis lesions was scored and analyzed on days 1, 3, 5, 7, 9, 11 and 14 after modeling.
Grading (i.e., scoring) was performed based on the three criteria of corneal ulcer area, depth and shape, and the total score was recorded by adding.
(1) Corneal ulcer area: Score 1=1% to 25%; Score 2=26% to 50%; Score 3=51% to 75%; and Score 4=76% to 100%.
(2) Lesion depth: Score 1=mild corneal opacity with clear iris texture; Score 2=off-white superficial corneal opacity with visible iris texture; Score 3=off-white deep corneal opacity with unclear iris texture; and Score 4=off-white full-layer dense corneal opacity with unclear anterior chamber.
(3) Corneal ulcer shape: Score 1=mild surface irregularity; Score 2=rough corneal surface with mild swelling; Score 3=severe edema with swelling descemet's membrane; and Score 4=corneal perforation or severe swelling descemet's membrane.
(4) If there is hypopyon and/or hyphema, the score is increased by 1.

[5] = test system: MHV-A59 virus; experiment: Pharmacodynamic evaluation for MHV, low-dose virus group; assay type: in vivo, C57BL/6 mice; settings: 4×10^5 PFU, day 8, control 19.19%
Description: The effect of A2 on the prevention and treatment of MHV was investigated.
Low-dose virus group: 21 male SPF grade C57BL/6 mice, aged 4 weeks, were divided into three groups: control group, precaution group and therapy group. These mice were anesthetized and then injected intrahepatically (i.h.) with 100 μL of DMEM containing 4×10^5 PFU MHV-A59 virus. The precaution group was given the first dose of A2 at 10 mg/kg 24 hours before the challenge, and the therapy group was given the first dose of A2 at 10 mg/kg 24 hours after the challenge, followed by daily continuous administration (both the precaution group and the therapy group were given a daily dose of 10 mg/kg). The infected mice were monitored daily. Blood samples were collected from the retro-orbital venous plexus on day 0 and day 4 after infection, and serum was extracted to detect alanine aminotransferase (ALT)/alanine aminotransferase (GPT) levels. On day 8 after infection, all groups of mice were sacrificed. Liver tissues were taken for virus titer determination and histological analysis, and spleen tissues were taken for virus specific T proliferation assay.

## [2H]C([2H])([2H])N1CCC(n2cc(-c3cnc(N)c(OCc4cccc(C#CC(C)(C)O)c4)c3)cn2)CC1 [Compound A2, 4-(3-(((2-amino-5-(1-(1-trideuteriomethylpiperidin-4-yl)-1H-pyrazol-4-yl)pyridin-3-yl)oxy)methyl)phenyl)-2-methylbut-3-yn-2-ol]
[1]
  remaining percentage of the parent cores after 60 min: 7.0%
[2]
  bioavailability: 18.8%
[2]; iv, 1 mg/kg
  AUC(0-t): 949 ng·h/mL
  clearance: 16.7 mL/min/kg
[2]; po, 10 mg/kg
  AUC(0-t): 1760 ng·h/mL
[3]
  IL-2 concentration ratio (stimulated by A2−unstimulated)/(stimulated−unstimulated): 5.89 fold
[4]; 0.2% eye drops for 2 weeks, P<0.01
  keratitis lesion scores vs model control group: statistically different
[4]; 0.2% eye drops
  corneal perforation: no corneal perforation
  clinical score at the highest peak of the disease (day 5): less than 6
[4]; 1% eye drops (suspension), control group above 1
  corneal neovascularization scoring: below 0.5
[4]; 1.0% eye drops for 2 weeks, P<0.05
  keratitis lesion scores vs model control group: statistically different
[4]; 1% eye drops
  corneal perforation: no corneal perforation
  clinical score at the highest peak of the disease (day 5): less than 6
[5]; precaution group, 10 mg/kg daily from 24 hours before challenge
  average proliferation rate of spleen cells (virus specific T cell proliferation): 28.18%
[5]; therapy group, 10 mg/kg daily from 24 hours after challenge
  average proliferation rate of spleen cells (virus specific T cell proliferation): 52.95%
